These results are taken from US11453647B2, “Benzimidazole derivatives as adenosine receptor antagonists” (Merck Patent GmbH, priority 2017, dated 2022).

One data set addresses T1, A2B receptors (Homo sapiens, UniProt P29275).
T1 sequence (P29275 1-332): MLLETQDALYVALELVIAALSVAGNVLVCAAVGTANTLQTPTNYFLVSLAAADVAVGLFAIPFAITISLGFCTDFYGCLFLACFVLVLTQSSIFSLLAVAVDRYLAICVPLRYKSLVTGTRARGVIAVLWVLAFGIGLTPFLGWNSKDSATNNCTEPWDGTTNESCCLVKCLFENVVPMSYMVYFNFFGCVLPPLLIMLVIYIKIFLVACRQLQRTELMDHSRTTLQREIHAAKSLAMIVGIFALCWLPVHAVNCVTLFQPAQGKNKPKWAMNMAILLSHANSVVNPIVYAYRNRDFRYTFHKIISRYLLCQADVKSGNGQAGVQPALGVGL
Briefly: functional cAMP (HTRF) assay, recombinant HEK293 cells expressing human A2B receptor, agonist NECA. Type of data set: cell-based. Also on record: expressed in transfected cells; host or cells: HEK293.

The target in another data set is T2, human A1 receptor (Homo sapiens, UniProt P30542).
T2 construct: expressed in transfected cells; host or cells: CHO
T2 sequence (P30542 1-326): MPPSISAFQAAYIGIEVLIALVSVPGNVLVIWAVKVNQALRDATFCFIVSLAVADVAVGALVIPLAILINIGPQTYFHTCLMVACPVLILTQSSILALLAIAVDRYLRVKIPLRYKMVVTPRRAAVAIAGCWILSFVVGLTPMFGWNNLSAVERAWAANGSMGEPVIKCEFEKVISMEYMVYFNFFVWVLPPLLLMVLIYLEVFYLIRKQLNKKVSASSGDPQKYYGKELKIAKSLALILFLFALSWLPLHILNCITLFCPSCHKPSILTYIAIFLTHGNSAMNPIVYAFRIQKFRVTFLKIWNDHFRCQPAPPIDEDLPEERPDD
Briefly: functional cAMP (HTRF) assay, recombinant CHO cells expressing human A1 receptor, forskolin, agonist CPA. Type of data set: cell-based. Put shortly: (§1)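 CHO cells (hA1 or hA3) + forskolin + test cpd + agonist (CPA/A1, IB-MECA/A3), 30 min; HTRF cAMP readout; normalized vs inhibitor and DMSO controls, curve fit.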
In general terms: TR-FRET usually uses a lanthanide donor and a delayed reading to cut background.

The next data set deals with T3, human A3 receptor (Homo sapiens, UniProt P0DMS8).
T3 construct: expressed in transfected cells; host or cells: CHO
T3 sequence (P0DMS8 1-318): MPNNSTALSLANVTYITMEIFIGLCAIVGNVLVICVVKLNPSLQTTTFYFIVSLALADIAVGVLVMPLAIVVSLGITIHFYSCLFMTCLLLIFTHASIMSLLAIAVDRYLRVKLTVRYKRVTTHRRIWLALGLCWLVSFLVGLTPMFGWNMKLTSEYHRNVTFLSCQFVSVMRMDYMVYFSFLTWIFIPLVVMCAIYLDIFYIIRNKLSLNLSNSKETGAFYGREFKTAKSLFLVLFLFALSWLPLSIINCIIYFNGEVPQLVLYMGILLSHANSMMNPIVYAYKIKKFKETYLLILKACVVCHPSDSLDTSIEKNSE
Description: functional cAMP (HTRF) assay, recombinant CHO cells expressing human A3 receptor, forskolin, agonist IB-MECA. Type of data set: cell-based. The gist of the method: as §1

In a further data set the target is T4, human A2A receptor (Homo sapiens, UniProt P29274).
T4 construct: expressed in transfected cells; host or cells: HEK293
T4 sequence (P29274 whole entry): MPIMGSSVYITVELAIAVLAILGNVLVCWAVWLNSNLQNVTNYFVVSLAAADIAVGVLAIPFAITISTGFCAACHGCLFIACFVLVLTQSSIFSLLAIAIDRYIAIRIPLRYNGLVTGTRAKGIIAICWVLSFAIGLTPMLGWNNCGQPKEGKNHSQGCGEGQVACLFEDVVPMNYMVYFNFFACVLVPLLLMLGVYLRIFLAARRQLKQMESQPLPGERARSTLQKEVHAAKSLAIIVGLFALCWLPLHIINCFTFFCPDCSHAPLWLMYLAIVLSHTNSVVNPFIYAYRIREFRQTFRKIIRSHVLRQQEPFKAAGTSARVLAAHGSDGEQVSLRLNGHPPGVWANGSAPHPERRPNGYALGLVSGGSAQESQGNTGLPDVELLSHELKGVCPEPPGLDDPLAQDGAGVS
Briefly: functional cAMP (HTRF) assay, recombinant HEK293 cells expressing human A2A receptor, agonist NECA. Type of data set: cell-based.

The nature of data set [1]: pharmacokinetic properties in mouse after single intravenous and oral administration. Type of data set: in vivo. Conditions: PK data in mouse; for clearance / half-life / Cmax / Vd: female, plasma, 0.2 mg/kg; for Cmax: dose-normalized to 1 mg/kg; for Vd: read-out: Vss. The source says:
The objective of the study was to obtain information on the pharmacokinetic properties of the compounds of the present invention in female Wistar rats/mice following single intravenous and oral administration.
Female Wistar rats/mice (n=6) received either a single intravenous (bolus) injection or an oral administration (by gavage) of the tested compound.
The concentrations of the compounds in plasma, feces were quantified using an UPLC method with tandem mass spectrometric detection (LC-MS/MS) previously developed at the ‘Institute of Drug Metabolism and Pharmacokinetics’. The LC-MS/MS system consisted of a Waters Acquity UPLC coupled to an AB Sciex mass spectrometer API 5500 Q-trap. […] The detection of the compounds was performed using multiple reaction monitoring in the positive ionization mode. Plasma samples were spiked with internal standard (20 μl) and the analyte was extracted from the matrix using tertiary-butyl methyl ether (tBME). The organic phase was evaporated to dryness under a stream of nitrogen. The residue was dissolved in acetonitrile/0.1% formic acid for LC-MS/MS analysis. Feces samples were homogenized with 4-times their volume of an ethanol/water mixture (4:1, v/v). Aliquots of the aqueous-ethanolic extracts were spiked with internal standard, diluted with acetonitrile/water (1:1, v/v) and directly injected into the LC-MS/MS system.
Pharmacokinetic parameters Cmax and tmax were taken from the observed data. […] AUC values were calculated by non-compartmental analysis using the linear up/log down method. Numerical data for mean plasma concentrations and derived pharmacokinetic parameters were rounded to 3 significant digits for presentation.

Broadly, the IC50 is the concentration needed to halve the response being measured. As a reminder, the half-life is the time needed for the level to fall by half in the phase considered. As a reminder, the Cmax is the maximum level reached in the sampled fluid or tissue. For `COc1ccc(-c2ccccc2)c2nc(NC(=O)N3CCC(C)(O)CC3)[nH]c12` [compound 12, 4-Hydroxy-4-methyl-piperidine-1-carboxylic acid (7-methoxy-4-phenyl-1H-benzoimidazol-2-yl)-amide], the IC50 at A2B receptors is less than 1000 nM; on human A1 receptor, less than 1000 nM; at human A3 receptor, less than 1000 nM; on human A2A receptor, less than 10 nM. Besides, in data set [1] (@0.2 (dose, unit not given)), the Feces iv was 27@0.2%. The clearance in data set [1] is 11.4 mL/min/kg. In data set [1], this compound had a half-life of 42.6 min. The Cmax in data set [1] was 1820 ng/mL. Moreover, the Vd in data set [1] came to 0.568 L/kg.

Turning to `COc1ccc(N2CCOCC2)c2nc(NC(=O)N3CCC(C)(O)CC3)[nH]c12` [compound 21, 4-hydroxy-N-(7-methoxy-4-morpholino-1H-benzimidazol-2-yl)-4-methyl-piperidine-1-carboxamide], the Feces iv in data set [1] (@0.08 (dose, unit not given)) is 38@0.08%. In data set [1], the clearance was 12.7 mL/min/kg, the half-life was 50.3 min, the highest level (Cmax) was 2650 ng/mL and the Vd came to 0.508 L/kg.

As to `COc1ccc(-c2cnn(C)c2)c2nc(NC(=O)N3CCC(C)(O)CC3)[nH]c12` [compound 22, 4-Hydroxy-4-methyl-piperidine-1-carboxylic acid [7-methoxy-4-(1-methyl-1H-pyrazol-4-yl)-1H-benzoimidazol-2-yl]-amide], the Feces iv in data set [1] (@0.2 (dose, unit not given)) is given as 46@0.2%. In data set [1], the clearance was 19.5 mL/min/kg, the half-life was 52 min, the Cmax is 1320 ng/mL and the Vd was 1.02 L/kg.

Turning to `COc1ccc(N2CCOCC2)c2nc(NC(=O)c3ccnc(N4CCOCC4)c3)[nH]c12` [compound 23, N-(7-Methoxy-4-morpholin-4-yl-1H-benzoimidazol-2-yl)-2-morpholin-4-yl-isonicotinamide], the Feces iv in data set [1] (@0.2 (dose, unit not given)) is 11@0.2%. In data set [1], the clearance is 10.3 mL/min/kg, the half-life was 103 min, the Cmax was 733 ng/mL and the Vd was 1.54 L/kg.

Take `COc1ccc(C2CCOCC2)c2nc(NC(=O)c3ccc(Cn4ccnc4)cc3)[nH]c12` [compound 97, 4-[(1H-imidazol-1-yl)methyl]-N-[7-methoxy-4-(oxan-4-yl)-1H-1,3-benzodiazol-2-yl]benzamide]: the half-inhibitory concentration (IC50) on A2B receptors was less than 100 nM. Besides, the IC50 at human A1 receptor was greater than 1000 nM. Besides, the IC50 on human A3 receptor was greater than 1000 nM. Further, the half-maximal inhibitory concentration (IC50) at human A2A receptor is less than 10 nM. Besides, in data set [1] (@0.2 (dose, unit not given)), the Feces iv was 29@0.2%. In data set [1], the clearance was 12.5 mL/min/kg, the half-life is 58 min, the highest level (Cmax) was 1050 ng/mL and the Vd was 1.01 L/kg.

For the compound `COc1ccc(-c2cnn(C)c2)c2nc(NC(=O)c3ccnc(N4CC[C@@](C)(O)C4)c3)[nH]c12` [compound 107, 2-[(3R)-3-hydroxy-3-methylpyrrolidin-1-yl]-N-[7-methoxy-4-(1-methyl-1H-pyrazol-4-yl)-1H-1,3-benzodiazol-2-yl]pyridine-4-carboxamide], at A2B receptors, the IC50 is less than 1000 nM. In addition, on human A1 receptor, the IC50 is greater than 1000 nM. Further, at human A3 receptor, the IC50 was less than 1000 nM. Moreover, the 50% inhibitory concentration (IC50) at human A2A receptor is less than 10 nM. For the same compound, the Feces iv in data set [1] (@0.2 (dose, unit not given)) is recorded as 34@0.2%. In addition, in data set [1], the clearance is 31.7 mL/min/kg, the half-life is 37.3 min, the Cmax stood at 718 ng/mL and the Vd turned out to be 1.54 L/kg.

In the case of `COc1ccc(-c2cnn(C)c2)c2nc(NC(=O)N3CC[C@]4(CCOC4)C3)[nH]c12` [compound 115, (5S)-N-[7-methoxy-4-(1-methyl-1H-pyrazol-4-yl)-1H-1,3-benzodiazol-2-yl]-2-oxa-7-azaspiro[4.4]nonane-7-carboxamide], the Feces iv in data set [1] (@0.2 (dose, unit not given)) is recorded as 8.6@0.2%. For the same compound, in data set [1], the clearance was 5.4 mL/min/kg, the half-life is 59.3 min, the peak concentration (Cmax) was determined as 2450 ng/mL and the Vd amounted to 0.425 L/kg.

For the compound `COc1ccc(-c2cnn(C)c2)c2nc(NC(=O)N3CC[C@@]4(CCOC4)C3)[nH]c12` [compound 116, (5R)-N-[7-methoxy-4-(1-methyl-1H-pyrazol-4-yl)-1H-1,3-benzodiazol-2-yl]-2-oxa-7-azaspiro[4.4]nonane-7-carboxamide], the Feces iv in data set [1] (@0.2 (dose, unit not given)) is given as 16.9@0.2%. Further, in data set [1], the clearance is 12.3 mL/min/kg, the half-life was 58 min, the Cmax came to 1130 ng/mL and the Vd was determined as 0.917 L/kg.

`COc1ccc(-c2ccccc2)c2[nH]c(NC(=O)c3ccc(C(=O)NCCO)cc3)nc12` [compound 312, N1-(2-hydroxyethyl)-N4-(4-methoxy-7-phenyl-1H-1,3-benzodiazol-2-yl)benzene-1,4-dicarboxamide]: the IC50 was less than 10 nM on A2B receptors, less than 1000 nM at human A1 receptor, less than 1000 nM at human A3 receptor and less than 10 nM at human A2A receptor.

Regarding `COc1ccc(C2=CCOCC2)c2nc(NC(=O)C3CC3)[nH]c12` [compound 314, N-[4-(3,6-dihydro-2H-pyran-4-yl)-7-methoxy-1H-1,3-benzodiazol-2-yl]cyclopropanecarboxamide], the IC50 on A2B receptors is less than 1000 nM; at human A1 receptor, greater than 1000 nM; at human A3 receptor it was less than 1000 nM; at human A2A receptor, less than 100 nM.

Take `COc1ccc(-c2cccnc2)c2nc(NC(=O)C3CC3)[nH]c12` [compound 315, N-[7-methoxy-4-(pyridin-3-yl)-1H-1,3-benzodiazol-2-yl]cyclopropanecarboxamide]: the concentration for half-maximal inhibition (IC50) at A2B receptors is less than 100 nM; at human A1 receptor, greater than 1000 nM; at human A3 receptor, less than 1000 nM; at human A2A receptor it was less than 100 nM.

For the compound `COc1ccc(-c2ccc(F)cc2)c2nc(NC(=O)c3ccc(C(=O)N(C)C)cc3)[nH]c12` [compound 316, N4-[4-(4-fluorophenyl)-7-methoxy-1H-1,3-benzodiazol-2-yl]-N1,N1-dimethylbenzene-1,4-dicarboxamide], the IC50 is less than 10 nM on A2B receptors, less than 1000 nM on human A1 receptor, less than 1000 nM at human A3 receptor and less than 10 nM on human A2A receptor.

For `COc1ccc(-c2ccc(F)cc2)c2nc(NC(=O)c3ccc(N4C(=O)CCC4=O)cc3)[nH]c12` [compound 317, 4-(2,5-dioxopyrrolidin-1-yl)-N-[4-(4-fluorophenyl)-7-methoxy-1H-1,3-benzodiazol-2-yl]benzamide], the concentration for half-maximal inhibition (IC50) at A2B receptors was less than 10 nM; on human A1 receptor, less than 1000 nM; on human A3 receptor, less than 1000 nM; at human A2A receptor, less than 10 nM.

As for `COc1ccc(-c2ccc(F)cc2)c2nc(NC(=O)c3cnn(C)c3)[nH]c12` [compound 318, N-[4-(4-fluorophenyl)-7-methoxy-1H-1,3-benzodiazol-2-yl]-1-methyl-1H-pyrazole-4-carboxamide], the IC50 at A2B receptors is less than 10 nM; at human A1 receptor, less than 100 nM; at human A3 receptor, less than 100 nM; at human A2A receptor it was less than 10 nM.
